Assay results from patent EP0140492B1 (WARNER-LAMBERT COMPANY, priority 1983, dated 1985).

Experiments:
[1] = water and alcohol; cited from earlier work
[2] = cited from earlier work
[3] = Plasma levels of isoxicam and bioavailability parameters after a single oral dose to beagle dogs; type: in vivo; settings: beagle, dog, in vivo, po; for Tmax: Tmax (hours)
Method: The range for the individual animals was 51.4 to 63.0 µg/ml with three animals having a peak time of two hours and the final animal at eight hours. These plasma levels were considerably higher when compared to micronized isoxicam. […] Peak plasma concentrations for individual animals ranged from […] between three and six hours postdose.
Areas under the plasma concentrations versus time curve (AUC^0-∞) were calculated using the trapezoidal rule and extrapolated to infinity with the appropriate elimination rate constants.

Cc1cc(NC(=O)C2=C(O)c3ccccc3S(=O)(=O)N2C)no1 [micronized isoxicam, 4 - hydroxy - 2 - methyl - N - (5 - methyl - 3 - isoxazolyl) - 2H - 1,2 - benzothiazine - 3 - carboxamide - 1,1 - dioxide, reference compound]
solubility [1]: practically insoluble in water and alcohol | pKa [2]: about 3.65 | AUC ([3]; 100 mg, AUC^0-∞): 808 µg·h/mL | Cmax ([3]; 100 mg, Cmax (µg/ml)): 15.4 µg/mL | half-life ([3]; 100 mg, Half-life (hours)): 35.5 h | Cmax ([3]; 100 mg, Mean Cmax): 15.4 ± 4.2 µg/mL | half-life ([3]; 100 mg, Mean half-lives (elimination, linear regression of semilogarithmic data)): 35.5 ± 7.1 h | Tmax ([3]; 100 mg): 4.2 h | AUC ([3]; 100 mg, mean AUC^0-∞): 808 ± 230 µg·h/mL | half-life ([3]; Half-life (hours)): 32.6 h | Tmax [3]: 6 h
